Measurements as given in US20060135773A1, “Trisubstituted nitrogen modulators of tyrosine phosphatases” (priority 2004, published 2006).

molecular target: T1, PTP-1B (Homo sapiens, UniProt P18031); assay: pNPP tyrosine phosphatase inhibition assay, PTP-1B; type: biochemical; details: pNPP assay, PTP-1B; read-out: Activity Class (IC50 ranges)
T1 construct: PTP-1B (purified, 1 mg/mL) as a 1:250 dilution
T1 sequence (P18031 1-321 limits assumed): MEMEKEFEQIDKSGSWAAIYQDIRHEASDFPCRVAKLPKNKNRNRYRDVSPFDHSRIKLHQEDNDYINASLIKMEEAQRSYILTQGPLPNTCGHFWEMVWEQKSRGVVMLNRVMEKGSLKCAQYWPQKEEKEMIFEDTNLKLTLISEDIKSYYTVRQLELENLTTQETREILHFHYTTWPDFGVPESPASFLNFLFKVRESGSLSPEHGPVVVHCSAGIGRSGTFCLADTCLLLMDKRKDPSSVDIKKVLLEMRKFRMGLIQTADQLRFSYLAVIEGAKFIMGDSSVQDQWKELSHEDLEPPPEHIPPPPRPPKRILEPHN
Procedure: The compounds provided herein are evaluated for biological activity as inhibitors of PTP-1B using, for example, a pNPP assay can be used to screen compounds for tyrosine phosphatase inhibitory activity as described in the Examples.
A 5× stock of pNPP (p-nitrophenol phosphate) substrate is prepared as 50 mM pNPP in assay buffer. Various tyrosine phosphatase solutions can be prepared as follows: • PTP-1B (purified, 1 mg/mL) as a 1:250 dilution (to a final concentration of 4:g/mL); • TC-PTP (NEB, 1000 units in 100:L) as a 1:50 dilution (to a final concentration of 2U/10:L (4:g/mL)); • CD45 (Calbiochem, 20:g, 400 units in 100:L) as a 1:50 dilution (to a final concentration of 0.8U/10:L (4:g/mL)); • LAR (NEB, 1000 units in 200:L) as a 1:75 dilution (to a final concentration of 0.7U/10:L (4:g/mL)); and • PTP-β (UBI, #14-350, 10,000 units, 40:g/571:L) as a 1:17.5 dilution (to a final concentration of 10U/10:L (4:g/mL));
The compound to be tested is prepared as 1:16.7 and 1:50 dilutions from stock in a total volume of […] DMSO to give final concentrations of 626 and 200:M. The reaction mixtures are prepared in a 96-well microtiter plate (on ice) as 55:L assay buffer, 5:L of the diluted compound (to a final concentration of 31.3 and 10:M), 20:L of the pNPP substrate solution (to a final concentration of 10 mM) and 20:L PTPase in assay buffer. The reactants are mixed well, the plate placed in a water bath at 30° C. and incubated for 10 minutes. The reaction is then terminated by adding 100:L of 2M K2CO3 per well, and the absorbance is measured at 405 nm by conventional means.
Unless otherwise indicated, this assay was used to determine activity for the selected compounds whose activity is provided in Table 1.

Row | Compound | IC50 [nM]
1 | 2,2-Dimethyl-propionic acid [(2-bromo-4-{[(4-methanesulfonyl-phenyl)-(2-methoxy-benzenesulfonyl)-amino]-methyl}-phenyl)-difluoro-methyl]-(2,2-dimethyl-propionyloxymethoxy)-phosphinoyloxymethyl ester [Compound 229] | > 25000
2 | 2,2-Dimethyl-propionic acid [(2-bromo-4-{[(4-methanesulfonyl-phenyl)-(2-methoxy-benzenesulfonyl)-amino]-methyl}-phenyl)-difluoro-methyl]-hydroxy-phosphinoyloxymethyl ester [Compound 228] | 2500 to 25000
3 | 2-(3-{4-[({[4-(difluorophosphonomethyl)-3-chlorophenyl]methyl}[(2-methoxyphenyl)sulfonyl]amino)methyl]phenyl}phenyl)acetic acid [Compound 193] | < 99
4 | 3-[(4-{[(2-Methoxy-benzenesulfonyl)-naphthalen-1-ylmethyl-amino]-methyl}-phenyl)-oxalyl-amino]-butyric acid [Compound 225] | > 25000
5 | 3-{2-Bromo-4-[N-(4-cyanobenzyl)-N-(2-methoxy-benzenesulfonyl)aminomethyl]-phenoxy}-acetic acid [Compound 121] | > 25000
6 | 3-{4-[({[4-(difluorophosphonomethyl)-3-chlorophenyl]methyl}[(2-methoxyphenyl)sulfonyl]amino)methyl]phenyl}-5-bromobenzoic acid [Compound 195] | < 99
7 | 4-{2-[({[4-(difluorophosphonomethyl)-3-chlorophenyl]methyl}[(2-methoxyphenyl)sulfonyl]amino)methyl]phenyl}benzamide [Compound 199] | < 99
8 | 5-{4-[({[4-(difluorophosphonomethyl)-3-chlorophenyl]methyl}[(2-methoxyphenyl)sulfonyl]amino)methyl]phenyl}-2-methoxybenzoic acid [Compound 207] | < 99
9 | 5-{4-[({[4-(difluorophosphonomethyl)phenyl]methyl}[(2-methoxyphenyl)sulfonyl]amino)methyl]phenyl}-2-hydroxybenzoic acid [Compound 210] | 250 to 499
10 | COc1ccccc1S(=O)(=O)N(Cc1ccc(Cl)c(Cl)c1)Cc1ccc(NC(=O)C(=O)O)c(C(=O)O)c1 [Compound 56, 5-{[(3,4-Dichloro-benzyl)-(2-methoxy-benzenesulfonyl)-amino]-methyl}-2-(oxalyl-amino)-benzoic acid] | > 25000
11 | Cc1cc(C=C(C#N)C(=O)Nc2ccc3ccccc3c2)c(C)n1-c1ccc(C(=O)O)cc1 [Compound 58, 4-{3-[2-Cyano-2-(naphthalen-2-ylcarbamoyl)-vinyl]-2,5-dimethyl-pyrrol-1-yl}-benzoic acid] | > 25000
12 | CC(=O)N(Cc1ccc(C(F)(F)P(=O)(O)O)cc1)Cc1ccc(C(F)(F)P(=O)(O)O)cc1 [Compound 59, {[4-({Acetyl-[4-(difluoro-phosphono-methyl)-benzyl]-amino}-methyl)-phenyl]-difluoro-methyl}-phosphonic acid] | > 25000
13 | CC(C)COC(=O)N(Cc1ccc(C(F)(F)P(=O)(O)O)cc1)Cc1ccc(C(F)(F)P(=O)(O)O)cc1 [Compound 61, {[4-({[4-(Difluoro-phosphono-methyl)-benzyl]-isobutoxycarbonyl-amino}-methyl)-phenyl]-difluoro-methyl}-phosphonic acid] | 2500 to 25000
14 | O=P(O)(O)C(F)(F)c1ccc(CN(Cc2ccc(C(F)(F)P(=O)(O)O)cc2)C2CCCC2)cc1 [Compound 63, {[4-({Cyclopentyl-[4-(difluoro-phosphono-methyl)-benzyl]-amino}-methyl)-phenyl]-difluoro-methyl}-phosphonic acid] | > 25000
15 | O=P(O)(O)C(F)(F)c1ccc(CN(Cc2ccc(C(F)(F)P(=O)(O)O)cc2)c2ccccc2)cc1 [Compound 64, {[4-({[4-(Difluoro-phosphono-methyl)-benzyl]-phenyl-amino}-methyl)-phenyl]-difluoro-methyl}-phosphonic acid] | 2500 to 25000
16 | O=P(O)(O)C(F)(F)c1ccc(CN(Cc2ccccc2)Cc2ccc(C(F)(F)P(=O)(O)O)cc2)cc1 [Compound 65, {[4-({Benzyl-[4-(difluoro-phosphono-methyl)-benzyl]-amino}-methyl)-phenyl]-difluoro-methyl}-phosphonic acid] | > 25000
17 | O=P(O)(O)C(F)(F)c1ccc(CN(Cc2ccc(C(F)(F)P(=O)(O)O)cc2)S(=O)(=O)c2cccc3ccccc23)cc1 [Compound 67, [(4-{[[4-(Difluoro-phosphono-methyl)-benzyl]-(naphthalene-1-sulfonyl)-amino]-methyl}-phenyl)-difluoro-methyl]-phosphonic acid] | 2500 to 25000

More lines, now with the values ahead:

Row | IC50 [nM] | Compound
18 | 250 to 499 | 2,2-Dimethyl-propionic acid [(2-chloro-4-{[(3,4-dichloro-benzyl)-(2-methoxy-benzenesulfonyl)-amino]-methyl}-phenyl)-difluoro-methyl]-hydroxy-phosphinoyloxymethyl ester [Compound 150]
19 | 250 to 499 | COC(=O)c1ccc(CN(Cc2ccc(C(F)(F)P(=O)(O)O)c(Br)c2)S(=O)(=O)c2ccccc2)cc1 [Compound 30, 4-({Benzenesulfonyl-[3-bromo-4-(difluoro-phosphono-methyl)-benzyl]-amino}-methyl)-benzoic acid methyl ester]
20 | 250 to 499 | O=P(O)(O)C(F)(F)c1ccc(CN(c2ccc(Cl)c(Cl)c2)S(=O)(=O)c2ccccc2)cc1Br [Compound 34, [(4-{[Benzenesulfonyl-(3,4-dichloro-phenyl)-amino]-methyl}-2-bromo-phenyl)-difluoro-methyl]-phosphonic acid]
21 | < 99 | O=P(O)(O)C(F)(F)c1ccc(CN(Cc2ccc(C(F)(F)P(=O)(O)O)c(Br)c2)S(=O)(=O)c2ccccc2)cc1 [Compound 38, {[4-({Benzenesulfonyl-[4-(difluoro-phosphono-methyl)-benzyl]-amino}-methyl)-2-bromo-phenyl]-difluoro-methyl}-phosphonic acid]
22 | < 99 | O=P(O)(O)C(F)(F)c1ccc(CN(Cc2ccc(C(F)(F)P(=O)(O)O)c(Br)c2)S(=O)(=O)c2ccc3ccccc3c2)cc1 [Compound 42, [(2-Bromo-4-{[[4-(difluoro-phosphono-methyl)-benzyl]-(naphthalene-2-sulfonyl)-amino]-methyl}-phenyl)-difluoro-methyl]-phosphonic acid]
23 | 100 to 249 | COc1ccccc1S(=O)(=O)N(Cc1ccc(-c2cccc(C#N)c2)cc1)Cc1ccc(C(F)(F)P(=O)(O)O)c(Cl)c1 [Compound 46, [(2-Chloro-4-{[(3′-cyano-biphenyl-4-ylmethyl)-(2-methoxy-benzenesulfonyl)-amino]-methyl}-phenyl)-difluoro-methyl]-phosphonic acid]
24 | < 99 | COc1ccccc1S(=O)(=O)N(Cc1ccc(-c2cccc(-c3nn[nH]n3)c2)cc1)Cc1ccc(C(F)(F)P(=O)(O)O)c(Cl)c1 [Compound 47, {[2-Chloro-4-({(2-methoxy-benzenesulfonyl)-[3′-(2H-tetrazol-5-yl)-biphenyl-4-ylmethyl]-amino}-methyl)-phenyl]-difluoro-methyl}-phosphonic acid]
25 | 250 to 499 | O=P(O)(O)C(F)(F)c1ccc(CN(Cc2ccc(C(F)(F)P(=O)(O)O)cc2)S(=O)(=O)c2ccccc2)cc1 [Compound 60, {[4-({Benzenesulfonyl-[4-(difluoro-phosphono-methyl)-benzyl]-amino}-methyl)-phenyl]-difluoro-methyl}-phosphonic acid]
26 | 2500 to 25000 | O=P(O)(O)C(F)(F)c1ccc(CN(Cc2ccc(C(F)(F)P(=O)(O)O)cc2)c2ccc(-c3ccccc3)cc2)cc1 [Compound 62, {[4-({Biphenyl-4-yl-[4-(difluoro-phosphono-methyl)-benzyl]-amino}-methyl)-phenyl]-difluoro-methyl}-phosphonic acid]
27 | 250 to 499 | O=P(O)(O)C(F)(F)c1ccc(CN(Cc2ccc(C(F)(F)P(=O)(O)O)cc2)S(=O)(=O)c2ccc(-c3ccccc3)cc2)cc1 [Compound 66, {[4-({(Biphenyl-4-sulfonyl)-[4-(difluoro-phosphono-methyl)-benzyl]-amino}-methyl)-phenyl]-difluoro-methyl}-phosphonic acid]
